Assay results reported in US20220306623A1, “PYRIDYL OR PYRIMIDYL MTOR KINASE INHIBITORS” (GLAXOSMITHKLINE INTELLECTUAL PROPERTY DEVELOPMENT LIMITED, priority 2019, published 2022).

Columns and labels:
[1] = system: type I collagen deposition in primary lung fibroblasts derived from human tissue; test: High throughput type I collagen deposition (scar-in-a-jar) high content screening assay; format: cell-based; conditions: Primary lung fibroblast, 72 h, human pulmonary fibroblasts, 384-well, TGF-β 1 ng/ml 72 h, total collagen area, read-out: mean pIC50, high throughput type I collagen deposition (scar-in-a-jar) (converted)
Protocol: Highthroughput, cellular type I collagen deposition was measured by adapting a published method; scar-in-a-jar (Chen et al., 2009) to primary lung fibroblasts derived from human tissue and combining with high content analysis to permit fluorescent quantification of collagen deposited in the extracellular matrix (ECM). The human biological samples were sourced ethically and their research use was in accordance with the terms of the informed consents.
Test compounds were dissolved in 100% DMSO to give 10 mM (stocks) and further diluted to give half log dilutions to generate an 11 point concentration response curve. 1 ul was transferred to 384-well plates (Greiner Group, Kremsmunster, Austria, Catalogue No Greine 781280r).
Human pulmonary fibroblasts were maintained in DMEM media (Gibco, Catalogue No 21969) supplemented with 4 mM L-glutamine (Gibco Catalogue No 25030-024) and 10% heat inactivated FBS (Gibco, Catalogue No 10099-141) at 37° C. in 10% CO2. Cells were harvested and resuspended at 4×10^6 cells/ml in a T175 cell culture flask (BD Falcom, Catalogue No: 353112) containing 50 mL of culture media. After 4 days 37° C. in 10% CO2, cells were harvested and seeded at 4000 cells per well ([…]) into 384-well plates (BD Falcon, Catalogue No 353962Greiner) in assay media (0.4% heat inactivated FBS, 4 mM L-glutamine). Plates were sealed with breathable seals (Sigma, Catalogue No. BEM-1). Assay plates were incubated for 72 h at 37° C. in 10% CO2.
Assay media was supplemented with 112.5 mg/ml Ficoll 70 (Sigma, Catalogue No F2878), 75 mg/ml Ficoll 400 (Sigma, Catalogue No F4375) and 50 µg/ml ascorbic acid (Sigma, Catalogue No A8960). 30 μL assay media were added to 1 l compound ([…] compound concentration in 1% DMSO). Diluted compounds (10 μL) were transferred to plates containing cells and incubated for 3 h at 37° C. in 10% CO2. Transforming growth factor (TGF)-β (R&D systems, Catalogue No 100-B/CF) was reconstituted to give 10 µg/mL (stock) and further diluted in assay media containing Ficoll and ascorbic acid (1 in 3333). TGF-β was added to cell plates (1 ng/ml final) and cells incubated for 72 h at 37° C. in 10% CO2.
Media was aspirated from cells and 30 µL/well 100% ice-cold methanol added and incubated at RT for 5 min to fix cells. Methanol was aspirated and cells washed with PBS (3×). To block and permeabilise, cells were incubated with PBS containing 1% BSA and 0.1% Triton X 100 for 20 min, followed by PBS wash (3×). Cells were incubated with mouse anti human type I collagen monoclonal antibody (Sigma, Catalogue No C2456) diluted 1:1000 in PBS for 24 h at 4° C. Cells were washed with PBS containing 0.1% Tween-20 (3×) and incubated with secondary alexa fluor 488 goat-anti-mouse antibody (Invitrogen, Catalogue No A11001, 1 in 500 in PBS) and Hoechst 33342 (Sigma, Catalogue No H21492), 1 in 1000 in PBS) for 1 h at RT, prior to washing with PBS containing 0.1% Tween (×4).
Type I collagen immunoreactivity was detected using the INCell 2000 Analyzer (GE Healthcare, INcell 2000) set to excitation and emission wavelengths for DAPI and FITC with laser focus and exposure adjusted to appropriate levels. Images were imported and analysed using Columbus software (Perkin Elmer) and computational algorithms to quantify “total collagen area” and “cell count”.
Data analysis was performed by determining 0/inhibition values for test compounds relative to the minimum (media only) and maximum responses (TGF-βstimulation) with non-linear regression analysis to determine IC50 values for test compounds.

[2] = target: T1, mTOR (Homo sapiens, UniProt P42345); test: mTOR kinobeads competition-binding assay; conditions: HuT-78 cell lysate, bead-immobilized capturing ligand, 2 h at 4° C., mean of multiple experiments; read-out: mean pIC50, mTOR kinobeads assay (converted)
T1 construct: capturing of endogenously expressed target proteins from cell extracts by a bead-immobilized capturing ligand; endogenous in cells; host or cells: HuT-78 cells (ECACC 88041901), cell lysate
Protocol: The affinity of test compounds for mTOR was determined in the mTOR kinobeads assay. This is a competition-binding assay based on the capturing of endogenously expressed target proteins from cell extracts by a bead-immobilized capturing ligand in the presence of the test compound.
HuT-78 cells (European Collection of Authenticated Cell Cultures, 88041901) were cultured according to vendor's instructions. Frozen cell pellets were homogenized in 3× pellet volumes lysis buffer (50 mM Tris-HCl, 0.4% (v/v) Igepal-CA630, 5% glycerol, 150 mM NaCl, 1.5 mM MgCl2, 25 mM NaF, 1 mM sodium vanadate, 1 mM DTT, pH 7.5, supplemented with EDTA-free protease inhibitor tablet (Roche)). The sample was dispersed using a Dounce homogenizer, kept rotating for 30 min at 4° C., and centrifuged for 10 min at 20000 gat 4° C. The supernatant was centrifuged again for 1 h at 145 000 g. The protein concentration was determined by Bradford assay (BioRad), aliquots were snap frozen in liquid nitrogen and stored at −80° C.
The capturing matrices were generated by derivatizing N-hydroxysuccinimide (NHS) activated Sepharose 4 beads (GE Healthcare) with the functionalized ligands Compound A and Compound C at a ligand density of 5 mM. Remaining NHS-groups were blocked with ethanolamine.
For the mTOR kinobeads assay the matrices were combined in a 1:1 ratio and equilibrated in DP buffer (50 mM Tris-HCl (pH 7.5), 0.4% (v/v) Igepal-CA630, 5% (v/v) glycerol, 150 mM NaCl, 1.5 mM MgCl2, 25 mM NaF, 1 mM Na3VO4, 1 mM dithiothreitol). All steps of the mTOR kinobeads assay were performed at 4° C. or on ice. The cell lysate was diluted with DP buffer to a final concentration of 5 mg/ml and a final detergent concentration of 0.4% (v/v) Igepal-CA630. For the assay 250 μg cell lysate and 2.5 μl capturing matrix per well (final assay volume: 75 μl) were incubated in the presence of test compounds in a 384-well filter plate (MultiScreenHTS HV Filter Plate, 0.45 μm, MZHVNOW50, Merck Millipore). Each plate contained 16 positive (100 μM Compound B) and 16 negative (2% v/v DMSO) control wells. Compounds were tested in a concentration-response applying 1:3 or 1:4 dilution steps for in total 11 data points. DMSO concentration was 2% (v/v). After 2 h incubation on an overhead shaker (Roto-Shake Genie, Scientific Industries Inc.) at 4° C. the non-bound fraction was removed by washing the beads with DP buffer. Proteins retained on the beads were eluted in SDS sample buffer (200 mM Tris (pH 7.4), 250 mM Trizma Base, 4% (w/v) SDS, 20% (v/v) glycerol, 0.01% (w/v) bromophenol blue, 50 mM dithiothreitol) into a collection plate (384 well polypropylene microplate, V-shape, Greiner, 781 280). Eluates were spotted on nitrocellulose membranes (400 nl per spot) using an automated pin-tool liquid transfer (Biomek FX, Beckman). After drying, the membranes were rehydrated in 20% (v/v) ethanol and blocked by incubation with Odyssey blocking buffer (LICOR, 927-40000) for 1 h at room temperature. Blocked membranes were incubated overnight at 25° C. with Odyssey blocking buffer supplemented with a specific anti-mTOR antibody (Cell Signaling, 2972; 1:500) and 0.4% TWEEN-20. Then the membranes were washed in PBST buffer and incubated for 60 minutes at room temperature with the detection antibody (IRDye™ labelled antibody from LI-COR) diluted in Odyssey blocking buffer (LICOR 927-40000) containing 0.2% TWEEN-20. Then the membranes were washed with PBST and finally rinsed twice with PBS buffer to remove residual Tween-20. The membranes were then scanned with the Odyssey® Infrared Imaging System (LI-COR Biosciences). Fluorescence signals were recorded and analyzed according to the instructions of the manufacturer. Concentration response curves were computed with the software Activity Base. All data were normalized to the mean of 16 high (negative control) and 16 low (positive control) control wells on each plate. […]

[3] = system: phosphorylated Akt at serine 473 (pAKTs473) in primary human lung fibroblasts; test: High throughput phosphorylated Akt (Ser473) in vitro immunoassay (MSD); format: cell-based; conditions: Fibroblast, primary human lung fibroblasts (Lonza), 384-well, compound 1 h, PDGF-BB 10 ng/ml 10 min, read-out: mean pIC50, pAKTser473 high throughput immunoassay (converted)
From the text: Immunoassay to measure effect of test compounds on phosphorylated Akt at serine 473 (pAKTs473) in primary human lung fibroblasts (Lonza Group Ltd, Basel, Switzerland, Catalogue No. CC-2512) using the MesoScale Discovery (MSD) platform to quantify levels of total Akt and pAKTser473.
Human lung fibroblasts were routinely maintained in fibroblast basal medium supplemented with 2% foetal bovine serum (FBS), 0.1% human fibroblast growth factor (FGF)-B, 0.1% insulin, 0.1% GA-100 (Lonza Group Ltd, Basel, Switzerland, Catalogue No. CC-3132) at 37° C. in 5% CO2 according to the manufacturer's protocol.
For the assay, cells were harvested using Trypsin/EDTA, (Lonza Group Ltd, Basel, Switzerland, Catalogue No. CC-5012), at working concentration of 0.025%, resuspended to give 3×10^5 cells/ml and 50 ul/well seeded into 384-well plates (Greiner Group, Kremsmunster, Austria, Catalogue No. 781091) in media containing 0.4% FBS and incubated o/n at 37° C. in 5% CO2.
Test compounds were dissolved in 100% DMSO to give 10 mM stock solutions and serially diluted to generate an 11-point concentration response curve. Compound were further diluted by […] into 384-well V-bottom polypropylene plates (Greiner Group, Kremsmunster, Austria, Catalogue No. 781280) with media containing 0.4% FBS to give 50 µM top compound concentration in 0.5% DMSO.
Compounds were transferred to 384-well plates contacting cells (0.1% DMSO final) and incubated for 1 h at 37° C. in 5% CO2, prior to stimulation with platelet-derived growth factor (PDGF)-BB (R&D Systems, Catalogue No. 220-BB) at 10 ng/ml (final) for 10 min at RT. Cell assay plates were incubated on ice and treated with lysis buffer (Cell Signalling Technology, Catalogue No. 9806) containing protease and phosphatase inhibitors (Thermo Scientific, Catalogue No. 78444) followed by shaking for 30 min at 4° C.
MSD plates (MSD, MA6000 384-well GAR plate, Catalogue No. L21RA-2) were blocked with blocking buffer containing TBS (MSD, Cat. No. R61TX-1) with 0.5% bovine serum albumin (BSA) (Sigma Aldrich, Cat. No. A7906), 0.1% tween-20 (Sigma Aldrich, Catalogue No. P2287) and coated with rabbit-anti-human pAkt (s473) ab (Cell Signalling Technology, Catalogue No. CST #4060) at RT with shaking, followed by washing (×3) with 1×TBS wash reagent containing 0.1% Tween-20. Cell lysates (30 ul) were added and MSD plates centrifuged at 1000 rpm at 4° C. o/n.
Plates were washed with 1×TBS wash buffer (×3), prior to addition of mouse-anti-human-total Akt ab (1 mg/ml) (Upstate (Milipore), Catalogue No. 05-591) in blocking buffer and shaken at RT for 1 h. After washing with 1×TBS wash buffer (×3), plates were incubated with goat-anti-mouse SULFO-TAG detection ab (MSD, Catalogue No. R32AC-1) (1:500 in blocking buffer) for 1 h at RT. Plates were washed with 1×TBS (×3) and read buffer (2×) (MSD, Catalogue No. R92TC-1) added before detecting electrochemiluminescence (MSD Sector Imager 6000).
Data analysis was performed by determining % inhibition values for test compounds relative to the minimum (+PDGF-BB stimulation) and maximum responses (no PDGF-BB stimulation) with non-linear regression analysis to determine IC50 values for test compounds.

SMILES | IC50 [1] [nM] | IC50 [2] [nM] | IC50 [3] [nM]
CC[C@H]1COCC(=O)N1c1cc(CS(=O)(=O)N(C)C)cc(-c2ccc3[nH]c(CO)cc3n2)n1 [Example 29, (S)-1-(2-(3-ethyl-5-oxomorpholino)-6-(2-(hydroxymethyl)-1H-pyrrolo[3,2-b]pyridin-5-yl)pyridin-4-yl)-N,Ndimethylmethanesulfonamide] | 20 to 3160 | ≤ 1.26 | –
CC[C@H]1COCC(=O)N1c1cc(CS(C)(=O)=O)nc(-c2ccc3[nH]c(CO)cc3n2)n1 [Example 5, (5S)-5-ethyl-4-{2-[2-(hydroxymethyl)-1H-pyrrolo[3,2-b]pyridin-5-yl]-6-(methanesulfonylmethyl)pyrimidin-4-yl}morpholin-3-one] | 20 to 3160 | ≤ 0.2 | –
CC[C@H]1COCCN1c1cc(CS(=O)(=O)NC)nc(-c2ccc3[nH]c(C)cc3n2)n1 [Example 11, 1-{6-[(3S)-3-ethylmorpholin-4-yl]-2-{2-methyl-1H-pyrrolo[3,2-b]pyridin-5-yl}pyrimidin-4-yl}-N-methylmethanesulfonamide] | 20 | ≤ 0.2 | –
CC[C@H]1COCCN1c1cc(CS(C)(=O)=O)nc(-c2ccc3[nH]c(C)cc3n2)n1 [Example 12, (3S)-3-ethyl-4-[6-(methanesulfonylmethyl)-2-{2-methyl-1H-pyrrolo[3,2-b]pyridin-5-yl}pyrimidin-4-yl]morpholine] | 20 to 3160 | ≤ 0.316 | –
CC[C@H]1COCCN1c1cc(C2(S(C)(=O)=O)CCOCC2)cc(-c2ccc3[nH]c(C)cc3n2)n1 [Example 21, (S)-3-ethyl-4-(6-(2-methyl-1H-pyrrolo[3,2-b]pyridin-5-yl)-4-(4-(methylsulfonyl)tetra-hydro-2H-pyran-4-yl)pyridin-2-yl)morpholine] | 20 to 3160 | – | 2.51 to 25.1
CC[C@H]1COCCN1c1cc(CS(C)(=O)=O)cc(-c2ccc3[nH]c(C)cc3n2)n1 [Example 22, (S)-3-ethyl-4-(6-(2-methyl-1H-pyrrolo[3,2-b]pyridin-5-yl)-4-((methylsulfonyl)methyl)pyridin-2-yl)morpholine] | 20 to 3160 | – | 2.51 to 25.1
